Test results: patent US6846913B1, “Crude extract from Viscum album coloratum, and proteins and lectins isolated therefrom” (Mistle Biotech Co., Ltd., priority 1999, dated 2005)

Tested on: hemagglutination of KML-IIU and KML-IIL
Design: species or system Korean mistletoe
Conditions: sugars stepwise diluted from 100 mM

| Structure (SMILES) | Minimal Conc. (mM) necessary to inhibit the hemagglutination [mM] |
| --- | --- |
| CC(=O)N[C@H]1C(O)O[C@H](CO)[C@@H](O)[C@@H]1O (stereo partly shown) [N-Acetylglucosamine] | >100 |
| OC[C@H]1O[C@@H](O[C@H]2[C@H](O)[C@@H](O)C(O)O[C@@H]2CO)[C@H](O)[C@@H](O)[C@H]1O (stereo partly shown) [Lactose] | 3 |
| CC(=O)N[C@H]1C(O)O[C@H](CO)[C@H](O)[C@@H]1O (stereo partly shown) [N-Acetylgalactosamine] | 3 |
| O=C[C@H](O)[C@@H](O)[C@@H](O)[C@H](O)CO [Galactose] | 6 |
